Data published in ChEMBL document CHEMBL4602703, “Lead Optimization of a Pyrrole-Based Dihydroorotate Dehydrogenase Inhibitor Series for the Treatment of Malaria” (J Med Chem, 2020).
In brackets after ≈: the same amount, converted by molar mass.

Columns and labels:
[1] = Intrinsic clearance in human liver microsomes assessed as per mg protein; format: ADME, Microsome
Plasmodium falciparum [2] = format: functional, organism-based; details: R10C1B, 72 h
HepG2 = assay: Cytotoxicity against human HepG2 cells assessed as reduction in cell viability; format: cell-based
[3] = Protein binding in human plasma by LC-MS analysis based ultracentrifugation assay; format: ADME, cell-free; details: read-out: PPB (converted)
[4] = Protein binding in mouse plasma by LC-MS analysis based ultracentrifugation assay; format: ADME, cell-free; details: read-out: PPB (converted)
Cytochrome P450 2C9 [5] = target: T1, Cytochrome P450 2C9 (Homo sapiens, UniProt P11712); assay: Inhibition of CYP2C9 in human liver microsomes using tolbutamide as substrate measured for 10 to 30 mins in presence of NADPH regenerating system by UPLC-MS analysis; format: ADME
T1 sequence (P11712 whole entry): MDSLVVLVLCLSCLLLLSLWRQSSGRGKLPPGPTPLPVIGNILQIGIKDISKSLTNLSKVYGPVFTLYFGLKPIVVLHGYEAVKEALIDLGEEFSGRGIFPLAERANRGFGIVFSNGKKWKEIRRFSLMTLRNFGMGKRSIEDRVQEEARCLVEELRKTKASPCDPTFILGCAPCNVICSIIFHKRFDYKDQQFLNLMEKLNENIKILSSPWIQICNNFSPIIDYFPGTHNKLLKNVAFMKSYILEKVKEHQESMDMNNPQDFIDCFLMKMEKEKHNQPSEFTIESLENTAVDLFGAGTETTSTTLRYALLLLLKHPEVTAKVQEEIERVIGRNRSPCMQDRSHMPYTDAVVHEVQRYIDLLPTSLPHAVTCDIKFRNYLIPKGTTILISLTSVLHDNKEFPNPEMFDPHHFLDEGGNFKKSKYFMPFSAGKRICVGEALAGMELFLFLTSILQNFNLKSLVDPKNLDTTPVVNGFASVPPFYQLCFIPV

Cytochrome P450 2C19 [6] = target: T2, Cytochrome P450 2C19 (Homo sapiens, UniProt P33261); assay: Inhibition of CYP2C19 in human liver microsomes using (S)-mephenytoin as substrate measured for 10 to 30 mins in presence of NADPH regenerating system by UPLC-MS analysis; format: ADME
T2 sequence (P33261 whole entry): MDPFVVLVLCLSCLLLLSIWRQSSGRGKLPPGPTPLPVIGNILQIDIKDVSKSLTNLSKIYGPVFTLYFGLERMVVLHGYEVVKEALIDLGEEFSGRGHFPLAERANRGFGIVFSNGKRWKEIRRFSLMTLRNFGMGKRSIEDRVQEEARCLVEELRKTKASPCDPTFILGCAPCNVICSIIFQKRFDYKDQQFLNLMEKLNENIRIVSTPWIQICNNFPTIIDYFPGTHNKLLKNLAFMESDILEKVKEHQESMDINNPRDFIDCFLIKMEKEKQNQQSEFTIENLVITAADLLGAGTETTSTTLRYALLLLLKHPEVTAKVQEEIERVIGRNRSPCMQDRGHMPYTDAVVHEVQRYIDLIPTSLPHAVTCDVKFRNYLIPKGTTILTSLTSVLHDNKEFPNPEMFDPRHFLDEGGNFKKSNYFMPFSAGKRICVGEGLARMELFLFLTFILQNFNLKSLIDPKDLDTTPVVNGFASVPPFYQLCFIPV

[7] = Cmax in Swiss mouse at 10.5 mg/kg, po via gavage measured up to 24 hrs by UPLC-MS analysis; format: ADME, organism-based; parameters: dose 10.5 mg/kg, route oral; details: in vivo
[8] = Apparent half life in Swiss mouse at 18.3 mg/kg, po via gavage measured up to 24 hrs by UPLC-MS analysis; format: ADME, organism-based; details: in vivo
[9] = Cmax in Swiss mouse at 18.3 mg/kg, po via gavage measured up to 24 hrs by UPLC-MS analysis; format: ADME, organism-based; parameters: dose 18.3 mg/kg, route oral; details: in vivo
[10] = AUC (0 to infinity) in Swiss mouse blood at 18.3 mg/kg, po via gavage measured up to 24 hrs by UPLC-MS analysis; format: ADME, organism-based; parameters: dose 18.3 mg/kg, route oral, time infinity; details: in vivo
[11] = Oral bioavailability in Swiss mouse at 18.3 mg/kg dosed via gavage measured up to 24 hrs by UPLC-MS analysis; format: ADME, organism-based; details: in vivo
[12] = Apparent half life in Swiss mouse at 50 mg/kg, po via gavage measured up to 24 hrs by UPLC-MS analysis; format: ADME, organism-based; details: in vivo
[13] = Cmax in Swiss mouse at 50 mg/kg, po via gavage measured up to 24 hrs by UPLC-MS analysis; format: ADME, organism-based; parameters: dose 50 mg/kg, route oral; details: in vivo
[14] = AUC (0 to infinity) in Swiss mouse blood at 50 mg/kg, po via gavage measured up to 24 hrs by UPLC-MS analysis; format: ADME, organism-based; parameters: dose 50 mg/kg, time infinity, route oral; details: in vivo
[15] = Oral bioavailability in Swiss mouse at 50 mg/kg dosed via gavage measured up to 24 hrs by UPLC-MS analysis; format: ADME, organism-based; details: in vivo
[16] = Apparent half life in Sprague-Dawley rat at 3 mg/kg, po administered via gavage measured up to 24 hrs by LC-MS analysis; format: ADME, organism-based; details: in vivo
[17] = Oral bioavailability in Sprague-Dawley rat at 3 mg/kg administered via gavage measured up to 24 hrs by LC-MS analysis; format: ADME, organism-based; details: in vivo
[18] = Apparent half life in Sprague-Dawley rat at 33 mg/kg, po administered via gavage measured up to 24 hrs by LC-MS analysis; format: ADME, organism-based; details: in vivo
[19] = Cmax in Sprague-Dawley rat at 33 mg/kg, po administered via gavage measured up to 24 hrs by LC-MS analysis; format: ADME, organism-based; parameters: dose 33 mg/kg, route oral; details: in vivo
[20] = AUC (0 to infinity) in Sprague-Dawley rat at 33 mg/kg, po administered via gavage measured up to 24 hrs by LC-MS analysis; format: ADME, organism-based; parameters: dose 33 mg/kg, time infinity, route oral; details: in vivo
[21] = AUC (0 to 23 hrs) in NOD-SCID IL2Rgamma null mouse blood infected with Plasmodium falciparum 3D70087/N9 at 10 mg/kg, po qd for 4 days starting from 3 days post infection and measured after 24 hrs post dose by LC-MS/MS analysis; format: ADME, organism-based; parameters: dose 10 mg/kg, time < 23 hr, route oral
[22] = AUC (0 to 23 hrs) in NOD-SCID IL2Rgamma null mouse blood infected with Plasmodium falciparum 3D70087/N9 at 50 mg/kg, po qd for 4 days starting from 3 days post infection and measured after 24 hrs post dose by LC-MS/MS analysis; format: ADME, organism-based; parameters: dose 50 mg/kg, time < 23 hr, route oral
[23] = fAUC in Plasmodium falciparum 3D70087/N9 infected po dosed NOD-SCID IL2Rgamma null mouse blood administered once daily for 4 days; format: ADME, organism-based; details: in vivo, 96 h
Albumin = Albumin (Homo sapiens, UniProt P02768); assay: Binding affinity to albumin (unknown origin) by chromatographic method; format: ADME; details: albumin, read-out: PB (converted)
Sequence of Albumin (P02768 whole entry): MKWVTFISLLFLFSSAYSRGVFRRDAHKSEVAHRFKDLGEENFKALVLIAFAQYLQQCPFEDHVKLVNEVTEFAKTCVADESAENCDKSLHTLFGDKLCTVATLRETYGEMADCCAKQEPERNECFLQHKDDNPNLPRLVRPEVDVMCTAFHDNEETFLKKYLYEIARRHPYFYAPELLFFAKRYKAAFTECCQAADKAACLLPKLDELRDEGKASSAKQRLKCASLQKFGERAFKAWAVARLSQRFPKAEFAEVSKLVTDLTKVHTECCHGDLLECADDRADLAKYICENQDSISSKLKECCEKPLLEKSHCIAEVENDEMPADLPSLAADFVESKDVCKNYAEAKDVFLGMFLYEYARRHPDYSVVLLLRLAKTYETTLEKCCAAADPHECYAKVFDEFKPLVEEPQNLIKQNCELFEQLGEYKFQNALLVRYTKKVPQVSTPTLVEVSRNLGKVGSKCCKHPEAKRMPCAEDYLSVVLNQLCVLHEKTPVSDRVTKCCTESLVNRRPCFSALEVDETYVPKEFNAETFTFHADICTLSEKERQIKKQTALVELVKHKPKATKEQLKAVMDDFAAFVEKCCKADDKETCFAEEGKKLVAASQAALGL

Cytochrome P450 2D6 = Cytochrome P450 2D6 (Homo sapiens, UniProt P10635); assay: Time-dependent inhibition of CYP2D6 in human liver microsomes using dextromethorphan as substrate in presence of NADPH regenerating system by UPLC-MS analysis; format: ADME
Sequence of Cytochrome P450 2D6 (P10635 whole entry): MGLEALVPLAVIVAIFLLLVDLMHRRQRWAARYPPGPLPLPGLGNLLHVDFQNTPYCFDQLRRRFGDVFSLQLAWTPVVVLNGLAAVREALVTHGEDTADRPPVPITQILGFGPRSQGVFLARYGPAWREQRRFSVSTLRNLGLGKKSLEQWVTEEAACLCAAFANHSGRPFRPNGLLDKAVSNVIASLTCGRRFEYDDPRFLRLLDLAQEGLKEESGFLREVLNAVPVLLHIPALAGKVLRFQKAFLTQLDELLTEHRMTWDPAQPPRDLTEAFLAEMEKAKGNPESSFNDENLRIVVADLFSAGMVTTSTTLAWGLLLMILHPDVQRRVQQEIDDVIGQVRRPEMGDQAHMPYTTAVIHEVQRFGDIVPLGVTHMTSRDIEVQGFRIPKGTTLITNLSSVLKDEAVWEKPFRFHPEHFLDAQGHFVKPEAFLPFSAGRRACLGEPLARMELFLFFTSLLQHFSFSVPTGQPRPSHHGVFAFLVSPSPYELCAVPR

Cytochrome P450 1A2 = target: T3, Cytochrome P450 1A2 (Homo sapiens, UniProt P05177); assay: Time-dependent inhibition of CYP1A2 in human liver microsomes using phenacetin as substrate in absence of NADPH regenerating system by UPLC-MS analysis; format: ADME
T3 sequence (P05177 whole entry): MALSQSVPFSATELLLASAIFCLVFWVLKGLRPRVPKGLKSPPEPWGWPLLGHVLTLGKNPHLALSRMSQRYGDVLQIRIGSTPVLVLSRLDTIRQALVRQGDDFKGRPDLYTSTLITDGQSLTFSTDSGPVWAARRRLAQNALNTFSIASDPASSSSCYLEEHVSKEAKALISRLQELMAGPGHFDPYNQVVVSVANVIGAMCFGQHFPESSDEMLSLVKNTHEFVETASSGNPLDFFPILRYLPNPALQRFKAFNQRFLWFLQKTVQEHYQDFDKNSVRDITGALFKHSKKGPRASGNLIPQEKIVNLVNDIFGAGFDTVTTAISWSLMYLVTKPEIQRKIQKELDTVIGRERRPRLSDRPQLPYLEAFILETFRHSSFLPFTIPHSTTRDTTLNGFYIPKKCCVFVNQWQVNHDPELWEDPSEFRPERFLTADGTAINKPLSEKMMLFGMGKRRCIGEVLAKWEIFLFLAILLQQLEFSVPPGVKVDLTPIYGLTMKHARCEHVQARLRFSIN

Cytochrome P450 2C9 [24] = target: T1, Cytochrome P450 2C9; assay: Time-dependent inhibition of CYP2C9 in human liver microsomes using tolbutamide as substrate in absence of NADPH regenerating system by UPLC-MS analysis; format: ADME
Cytochrome P450 2C19 [25] = target: T2, Cytochrome P450 2C19; assay: Time-dependent inhibition of CYP2C19 in human liver microsomes using (S)-mephenytoin as substrate in absence of NADPH regenerating system by UPLC-MS analysis; format: ADME
[26] = simulated gi fluid, pH 1.6
Plasmodium falciparum [27] = tested on: Plasmodium falciparum
CYP3A4/5 = CYP3A4/5 (Homo sapiens, UniProt P08684+P20815); assay: in vitro; details: liver microsomes, probe testosterone
Plasmodium falciparum [28] = assay: animal or person; details: 3D70087/N9, in Mus musculus, po, 96 h
[29] = Intrinsic clearance in liver microsomes assessed as per mg protein; details: read-out: CLH
[30] = Cmax in Swiss mouse blood at 10.5 mg/kg, po via gavage measured up to 24 hrs by UPLC-MS analysis; details: in vivo

For `Cc1c(Cc2ccc(C(F)(F)F)nc2)c[nH]c1C(=O)NC1CC1`, the microsomal CLint [1] was 10 µL/min/mg, the EC50 (Plasmodium falciparum [2]) was 0.024 µM and the CC50 (HepG2) was > 50 µM. For the same molecule, the fraction unbound [3] was 0.1, the fraction unbound [4] was 0.111 and the IC50 (Cytochrome P450 2C9 [5]) was > 20 µM. For the same molecule, the IC50 (Cytochrome P450 2C19 [6]) was > 20 µM, the Cmax [7] was 4.6 µM and the “t1/2(app)” value [8] was 2.6 h. The Cmax [9] was 8.4 µM, the AUC [10] was 44.5 µM·h and the F [11] was > 100%. The “t1/2(app)” value [12] was 3.6 h, the Cmax [13] was 42.3 µM and the AUC [14] was 176 µM·h. For the same molecule, the F [15] was > 100%, the “t1/2(app)” value [16] was 3.9 h and the F [17] was 91%. For the same molecule, the “t1/2(app)” value [18] was 2.8 h, the Cmax [19] was 27 µM and the AUC [20] was 204 µM·h. It also gave an AUC at 23 h [21] of 2.1 µM·h, an AUC at 23 h [22] of 26.7 µM·h and a fAUC [23] of 1100 ng·h/mL. The fraction unbound (Albumin) was 0.238, the TDI (Cytochrome P450 2D6) was “Not Active” and the TDI (Cytochrome P450 1A2) was “Not Active”. For the same molecule, the TDI (Cytochrome P450 2C9 [24]) was “Not Active”, the TDI (Cytochrome P450 2C19 [25]) was “Not Active” and the solubility [26] was 46.4 µg/mL (≈ 144 µM). For the same molecule, the fEC50 (Plasmodium falciparum [27]) was 0.0077 µM, the IC50 (CYP3A4/5) was > 20 µM and the ED90 (Plasmodium falciparum [28]) was 50 mg/kg/day. For the same molecule, the microsomal CLint [29] was 24 µL/min/mg and the Cmax [30] was 3.7 µM.
